According to PubChem BioAssay (NCI):
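Five compound concentrations were applied to cells in 96-well plates for 48 hours; endpoints were derived by simple linear interpolation of the resulting dose-response curve. At the TGI there is no net growth.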

Tests used:
Test in all cases: NCI anticancer screen, dose series, 48 h
DMS 114 small cell lung = system: DMS 114 small cell lung
SNB-78 CNS = system: SNB-78 CNS
DLD-1 colon = system: DLD-1 colon
KM20L2 colon = system: KM20L2 colon
LXFL 529 NSCLC = system: LXFL 529 NSCLC
M19-MEL melanoma = system: M19-MEL melanoma
HOP-18 NSCLC = system: HOP-18 NSCLC
XF 498 CNS = system: XF 498 CNS

Measured: TGI

Cc1c2n(c(=O)[nH]c1=O)C1OC(CO)C(O2)C1O (stereo not drawn)
not listed: HOP-18 NSCLC | XF 498 CNS
> 100 µM: all other assays above

[N-]=[N+]=NC1(Cc2ccccc2)C(=O)c2cccc3c2N(CCC3)C1=O (stereo not drawn)
> 100 µM: HOP-18 NSCLC | DMS 114 small cell lung | DLD-1 colon | LXFL 529 NSCLC | M19-MEL melanoma

O=[N+]([O-])c1cccc(C2=NN(c3ccccc3)C[N+](c3ccc(Br)cc3)=N2)c1
not listed: DMS 114 small cell lung
> 100 µM: all other assays above
